Patent US9326985B2, “Heteroaryl pyridone and aza-pyridone amide compounds” (Genentech, Inc., priority 2013, dated 2016)

Columns and labels:
[1] = target: T1, full length human wildtype Btk (Homo sapiens, UniProt Q06187); assay: Biochemical Btk Assay (BTK LC3K)
T1 construct: V5 (C); 6xHis (C); made in house; host or cells: Sf9 insect cells (baculovirus, pFastBac)
Procedure: A generalized procedure for a standard biochemical Btk, Kinase Assay that can be used to test Formula I compounds is as follows. A master mix minus Btk enzyme is prepared containing 1× Cell Signaling kinase buffer (25 mM Tris-HCl, pH 7.5, 5 mM beta-glycerophosphate, 2 mM dithiothreitol, 0.1 mM Na3VO4, 10 mM MgCl2), 0.5 μM Promega PTK Biotinylated peptide substrate 2, and 0.01% BSA. A master mix plus Btk enzyme is prepared containing 1× Cell Signaling kinase buffer, 0.5 μM (micromolar) PTK Biotinylated peptide substrate 2, 0.01% BSA, and 100 ng/well (0.06 mU/well) Btk enzyme. Btk enzyme is prepared as follows: full length human wildtype Btk (accession number NM-000061) with a C-terminal V5 and 6×His tag was subcloned into pFastBac® vector (Invitrogen/Life Technologies) for making baculovirus carrying this epitope-tagged Btk. […] Passage 3 virus is used to infect Sf9 cells to overexpress the recombinant Btk protein. The Btk protein is then purified to homogeneity using Ni-NTA column. […] A solution of 200 μM ATP is prepared in water and adjusted to pH 7.4 with 1N NaOH. A quantity of 1.25 μL (microliter) of compounds in 5% DMSO is transferred to a 96-well ½ area Costar polystyrene plate. Compounds are tested singly and with an 11-point dose-responsive curve (starting concentration is 10 μM; 1:2 dilution). A quantity of 18.75 μL of master mix minus enzyme (as a negative control) and master mix plus enzyme is transferred to appropriate wells in 96-well ½ area costar polystyrene plate. 5 μL of 200 μM ATP is added to that mixture in the 96-well ½ area Costar polystyrene plate for final ATP concentration of 40 μM. The reaction is allowed to incubate for 1 hour at room temperature. The reaction is stopped with Perkin Elmer 1× detection buffer containing 30 mM EDTA, 20 nM SA-APC, and 1 nM PT66 Ab. […] IC50 values are subsequently calculated. Alternatively, the Lanthascreen assay can be used to evaluate Btk activity through quantification of its phosphorylated peptide product. The FRET (Fluorescence Resonance Energy Transfer) that occurs between the fluorescein on the peptide product and the terbium on the detection antibody decreases with the addition of inhibitors of Btk that reduce the phosphorylation of the peptide. In a final reaction volume of 25 uL, Btk (h) (0.1 ng/25 ul reaction) is incubated with 50 mM Hepes pH 7.5, 10 mM MgCl2, 2 mM MnCl2, 2 mM DTT, 0.2 mM NaVO4, 0.01% BSA, and 0.4 uM fluorescein poly-GAT. […] After incubation for 60 minutes at room temperature, the reaction is stopped by the addition of a final concentration of 2 nM Tb-PY20 detection antibody in 60 mM EDTA for 30 minutes at room temperature.

[2] = test system: CD69 by B lymphocytes in human whole blood activated with goat F(ab')2 anti-human IgM; assay: CD69 Whole Blood Assay (CD69 Hu Blood FACS); assay type: cell-based; details: Lymphocyte, CD69 positive of CD20 positive cells
Procedure: CD69 is a type II C-type lectin involved in lymphocyte migration and cytokine secretion.
Human blood is obtained from healthy volunteers, with the following restrictions: 1 week drug-free, non-smokers. Blood (approximately 20 mls to test 8 compounds) is collected by venipuncture into Vacutainer® (Becton, Dickinson and Co.) tubes with sodium heparin.
Solutions of Formula I compounds at 10 mM in DMSO are diluted 1:10 in 100% DMSO, then are diluted by three-fold serial dilutions in 100% DMSO for a ten point dose-response curve. The compounds are further diluted 1:10 in PBS and then an aliquot of 5.5 μl of each compound is added in duplicate to a 2 ml 96-well plate; 5.5 μl of 10% DMSO in PBS is added as control and no-stimulus wells. Human whole blood—HWB (100 μl) is added to each well. After mixing the plates are incubated at 37° C., 5% CO2, 100% humidity for 30 minutes. Goat F(ab′)2 anti-human IgM (10 μl of a 500 μg/ml solution, 50 μg/ml final) is added to each well (except the no-stimulus wells) with mixing and the plates are incubated for an additional 20 hours. At the end of the 20 hour incubation, samples are incubated with fluorescent labeled antibodies for 30 minutes, at 37° C., 5% CO2, 100% humidity. Include induced control, unstained and single stains for compensation adjustments and initial voltage settings. Samples are then lysed with PharM Lyse™ (BD Biosciences Pharmingen) according to the manufacturer's instructions. Samples are then transferred to a 96 well plate suitable to be run on the BD Biosciences HTS 96 well system on the LSRII machine. Data acquired and Mean Fluorescence Intensity values were obtained using BD Biosciences DIVA Software. Results are initially analyzed by FACS analysis software (Flow Jo).

T1 sequence (Q06187 whole entry): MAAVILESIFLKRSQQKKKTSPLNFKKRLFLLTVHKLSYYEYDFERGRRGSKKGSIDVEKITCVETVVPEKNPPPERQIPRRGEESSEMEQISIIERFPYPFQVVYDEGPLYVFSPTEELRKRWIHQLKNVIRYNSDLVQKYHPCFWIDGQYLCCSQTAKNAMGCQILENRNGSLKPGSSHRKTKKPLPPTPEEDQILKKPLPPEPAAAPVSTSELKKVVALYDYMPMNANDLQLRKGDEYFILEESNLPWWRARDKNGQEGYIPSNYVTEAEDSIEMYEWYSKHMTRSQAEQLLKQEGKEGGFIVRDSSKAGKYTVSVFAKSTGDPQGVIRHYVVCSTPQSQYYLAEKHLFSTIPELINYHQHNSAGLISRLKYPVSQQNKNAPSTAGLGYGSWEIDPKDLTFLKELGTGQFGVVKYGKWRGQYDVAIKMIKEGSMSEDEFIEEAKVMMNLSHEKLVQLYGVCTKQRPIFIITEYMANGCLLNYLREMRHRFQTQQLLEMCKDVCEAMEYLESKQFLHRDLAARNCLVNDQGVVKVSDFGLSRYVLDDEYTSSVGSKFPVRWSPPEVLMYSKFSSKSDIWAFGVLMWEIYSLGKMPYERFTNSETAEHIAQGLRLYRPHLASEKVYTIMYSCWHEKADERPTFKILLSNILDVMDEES

| SMILES | Ki ([1]; Table 1) [nM] | IC50 ([2]; Table 1, anti-IgM stimulation) [nM] | Ki ([1]; Table 2) [nM] | IC50 ([2]; Table 2, anti-IgM stimulation) [nM] |
| --- | --- | --- | --- | --- |
| Cn1cc(-c2ccnc(N3CCn4c(cc5c4CC(C)(C)C5)C3=O)c2CO)cc(NC(=O)c2ccc(N3CCCC3)nc2)c1=O [Compound 113, N-[5-[2-(7,7-dimethyl-4-oxo-1,2,6,8-tetrahydrocyclopenta[3,4]pyrrolo[3,5-b]pyrazin-3-yl)-3-(hydroxymethyl)-4-pyridyl]-1-methyl-2-oxo-3-pyridyl]-6-pyrrolidin-1-yl-pyridine-3-carboxamide] | 77 | > 3500 | – | – |
| Cn1cc(-c2ccnc(N3CCn4c(cc5c4CC(C)(C)C5)C3=O)c2CO)cc(NC(=O)C2CC2(F)F)c1=O (stereo not shown) [Compound 116, N-[5-[2-(7,7-dimethyl-4-oxo-1,2,6,8-tetrahydrocyclopenta[3,4]pyrrolo[3,5-b]pyrazin-3-yl)-3-(hydroxymethyl)-4-pyridyl]-1-methyl-2-oxo-3-pyridyl]-2,2-difluoro-cyclopropanecarboxamide] | 34.8 | 988 | – | – |
| CN1CC[C@@]2(C[C@H]2C(=O)Nc2cc(-c3ccnc(-n4ncc5cc(C(C)(C)C)cc(F)c5c4=O)c3CO)cn(C)c2=O)C1 (single isomer, unassigned) [Compound 175] | – | – | 7.6 | > 4800 |
| CC(=O)Nc1cc(-c2ccnc(-n3ncc4cc(C(C)(C)C)cc(F)c4c3=O)c2CO)cn(C)c1=O [Compound 127, N-[5-[2-(6-tert-butyl-8-fluoro-1-oxo-phthalazin-2-yl)-3-(hydroxymethyl)-4-pyridyl]-1-methyl-2-oxo-3-pyridyl]acetamide] | 10.8 | 335 | – | – |
| Cn1cc(-c2ccnc(N3CCc4c(sc5c4CC(C)(C)C5)C3=O)c2CO)cc(NC(=O)C2CC2)c1=O [Compound 131, N-[5-[2-(7,7-dimethyl-4-oxo-1,2,6,8-tetrahydrocyclopenta[3,4]thieno[1,3-c]pyridin-3-yl)-3-(hydroxymethyl)-4-pyridyl]-1-methyl-2-oxo-3-pyridyl]cyclopropanecarboxamide] | – | – | 7.06 | 240 |
| CCOC1C[C@H]1C(=O)Nc1cc(-c2ccnc(N3CCn4c(cc5c4CC(C)(C)C5)C3=O)c2CO)cn(C)c1=O (single isomer, unassigned) [Compound 143] | – | – | 53 | 2200 |
| CN(C)C(=O)C1C[C@@H]1C(=O)Nc1cc(-c2ccnc(-n3ncc4cc(C(C)(C)C)cc(F)c4c3=O)c2CO)cn(C)c1=O (single isomer, unassigned) [Compound 171, N2-[5-[2-(6-tert-butyl-8-fluoro-1-oxo-phthalazin-2-yl)-3-(hydroxymethyl)-4-pyridyl]-1-methyl-2-oxo-3-pyridyl]-N1,N1-dimethyl-cyclopropane-1,2-dicarboxamide] | – | – | 91.5 | > 4800 |
| Cn1cc(-c2cc(F)cc(N3CCn4c(cc5c4CC(C)(C)C5)C3=O)c2CO)cc(NC(=O)C2CC2)c1=O [Compound 130, N-[5-[3-(7,7-dimethyl-4-oxo-1,2,6,8-tetrahydrocyclopenta[3,4]pyrrolo[3,5-b]pyrazin-3-yl)-5-fluoro-2-(hydroxymethyl)phenyl]-1-methyl-2-oxo-3-pyridyl]cyclopropanecarboxamide] | – | – | 1.29 | 35 |
| Cn1cc(-c2ccnc(-n3ncc4cc(C(C)(C)C)cc(F)c4c3=O)c2CO)cc(NC(=O)[C@H]2CC23CC3)c1=O (single isomer, unassigned) [Compound 162] | – | – | 5 | 786 |
| Cn1cc(-c2ccnc(-c3nc4ccc(C(C)(C)C)cc4n3C)c2CO)cc(NC(=O)C2CC2)c1=O [Compound 160, N-[5-[2-(6-tert-butyl-1-methyl-benzimidazol-2-yl)-3-(hydroxymethyl)-4-pyridyl]-1-methyl-2-oxo-3-pyridyl]cyclopropanecarboxamide] | – | – | 25.7 | > 3500 |
| CN1CCC2(CC1)C[C@H]2C(=O)Nc1cc(-c2ccnc(-n3ncc4cc(C(C)(C)C)cc(F)c4c3=O)c2CO)cn(C)c1=O (single isomer, unassigned) [Compound 165] | – | – | 40.8 | > 4800 |
| Cn1cc(-c2ccnc(N3CCn4c(cc5c4CC(C)(C)C5)C3=O)c2CO)cc(NC(=O)[C@@H]2CC23CCC3)c1=O (single isomer, unassigned) [Compound 146] | – | – | 17 | 5200 |
| CN1CC[C@]2(C[C@@H]2C(=O)Nc2cc(-c3ccnc(-n4ncc5cc(C(C)(C)C)cc(F)c5c4=O)c3CO)cn(C)c2=O)C1 (single isomer, unassigned) [Compound 173] | – | – | 26 | > 4800 |
| Cn1cc(-c2cc(F)cc(N3CCn4c(cc5c4CC(C)(C)C5)C3=O)c2CO)cc(NC(=O)[C@@H]2C[C@@H]2F)c1=O [Compound 172, (1S,2S)—N-[5-[3-(7,7-dimethyl-4-oxo-1,2,6,8-tetrahydrocyclopenta[3,4]pyrrole[3,5-b]pyrazin-3-yl)-5-fluoro-2-(hydroxymethyl)phenyl]-1-methyl-2-oxo-3-pyridyl]-2-fluoro-cyclopropanecarboxamide] | – | – | 0.8 | 17 |
| Cn1cc(-c2ccnc(N3CCn4c(cc5c4CC(C)(C)C5)C3=O)c2CO)cc(NC(=O)[C@H]2CC23CC3)c1=O (single isomer, unassigned) [Compound 141] | – | – | 5.8 | 1600 |
| Cn1cc(-c2ccnc(N3CCn4c(cc5c4CC(C)(C)C5)C3=O)c2CO)cc(NC(=O)[C@@H]2CC23CC3)c1=O (single isomer, unassigned) [Compound 140] | – | – | 5.2 | 1400 |
| Cn1cc(-c2ccnc(-c3nc4cc(C(C)(C)C)ccc4n3C)c2CO)cc(NC(=O)C2CC2)c1=O [Compound 164, N-[5-[2-(5-tert-butyl-1-methyl-benzimidazol-2-yl)-3-(hydroxymethyl)-4-pyridyl]-1-methyl-2-oxo-3-pyridyl]cyclopropanecarboxamide] | – | – | > 500 | > 10600 |
| Cn1cc(-c2cc(F)cc(N3CCc4c(cc5n4CC(C)(C)C5)C3=O)c2CO)cc(NC(=O)[C@@H]2C[C@@H]2F)c1=O [Compound 168] | – | – | 1 | 157 |
| C[C@@H]1C[C@H]1C(=O)Nc1cc(-c2ccnc(N3CCn4c(cc5c4CC(C)(C)C5)C3=O)c2CO)cn(C)c1=O [Compound 138, (1R,2R)—N-[5-[2-(7,7-dimethyl-4-oxo-1,2,6,8-tetrahydrocyclopenta[3,4]pyrrolo[3,5-b]pyrazin-3-yl)-3-(hydroxymethyl)-4-pyridyl]-1-methyl-2-oxo-3-pyridyl]-2-methyl-cyclopropanecarboxamide] | – | – | 43.8 | 2600 |
| Cn1cc(-c2ccnc(N3CCn4c(cc5c4CC(C)(C)C5)C3=O)c2CO)cc(NC(=O)c2ccccc2)c1=O [Compound 114, N-[5-[2-(7,7-dimethyl-4-oxo-1,2,6,8-tetrahydrocyclopenta[3,4]pyrrolo[3,5-b]pyrazin-3-yl)-3-(hydroxymethyl)-4-pyridyl]-1-methyl-2-oxo-3-pyridyl]benzamide] | 236 | > 5400 | – | – |
